# Patent publication US20170051149A1, “AZOARYLS AS REVERSIBLY MODULATABLE TUBULIN INHIBITORS” (ECOLE NORMALE SUPERIEURE DE LYON, priority 2014, published 2017)
# Read-outs that look alike come from different tables or passages of the source.
# Assays:
# Test in all cases: nuclear fragmentation (subG1, Nicoletti), induction of apoptosis
# Assay type in all cases: cell-based
# [1] = system: Jurkat cells; conditions: 48 h
# Description: (§1) Different cell types, including MDA-MB-231, Jurkat, HeLa and HepG2 cells, were treated with indicated concentrations of compound I.1 and exposed to a 390 nm toxic regime, a rescue regime with both 390 nm and 515 nm light, or kept in the dark. Following the treatment, cells were stained with PI and the percentage of cells containing a hypodiploid amount of DNA (subG1 phase of cell cycle), was determined. Briefly, prior to analysis, cells were harvested on ice and incubated in a hypotonic buffer [0.1% sodium citrate, 0.1% Triton X-100 and 50 μg/mL propidium iodide (PI)] for 30 min at 4° C. Following the PI staining cells were analysed by flow cytometry using FACSCalibur flow cytometer (Becton Dickinson, Heidelberg, Germany) and Cell Quest Pro Software (Becton Dickinson).
# [2] = system: HepG2 cells; conditions: 48 h
# Description: as §1
# [3] = system: MDA-MB-231 cells; conditions: for EC50: Homo sapiens, MDA-MB-231, 48 h, read-out: EC50, 50% increase of the subG1 population percentage
# Description: as §1
compound,measurement,setting,value
"COc1ccc(N=Nc2cc(OC)c(OC)c(OC)c2)cc1O [I.1, 2-methoxy-5-((3,4,5-trimethoxyphenyl)diazenyl)phenol]",mean % subG1 phase,"[1]; 5 nM, 390 nm (350 ms pulses every 5 min)",2.7%
same,mean % subG1 phase,"[1]; 5 nM, dark",3.0%
same,mean % subG1 phase,"[1]; 50 nM, 390 nm (350 ms pulses every 5 min)",4.9%
same,mean % subG1 phase,"[1]; 50 nM, dark",3.4%
same,mean % subG1 phase,"[1]; 100 nM, 390 nm (350 ms pulses every 5 min)",9.1%
same,mean % subG1 phase,"[1]; 100 nM, dark",3.5%
same,mean % subG1 phase,"[1]; 150 nM, 390 nm (350 ms pulses every 5 min)",18.5%
same,mean % subG1 phase,"[1]; 150 nM, dark",3.3%
same,mean % subG1 phase,"[1]; 200 nM, 390 nm (350 ms pulses every 5 min)",49.7%
same,mean % subG1 phase,"[1]; 200 nM, dark",3.0%
same,mean % subG1 phase,"[1]; 400 nM, 390 nm (350 ms pulses every 5 min)",88.5%
same,mean % subG1 phase,"[1]; 400 nM, dark",4.4%
same,mean % subG1 phase,"[1]; 800 nM, 390 nm (350 ms pulses every 5 min)",89.5%
same,mean % subG1 phase,"[1]; 800 nM, dark",5.5%
same,mean % subG1 phase,"[1]; 1.5 μM, 390 nm (350 ms pulses every 5 min)",89.6%
same,mean % subG1 phase,"[1]; 1.5 μM, dark",7.9%
same,mean % subG1 phase,"[1]; 5 μM, 390 nm (350 ms pulses every 5 min)",91.0%
same,mean % subG1 phase,"[1]; 5 μM, dark",12.0%
same,mean % subG1 phase,"[2]; 100 nM, HepG2, 390 nm light (250 ms pulses every 15 s)",5.4%
same,mean % subG1 phase,"[2]; 100 nM, HepG2, dark",2.5%
same,mean % subG1 phase,"[2]; 600 nM, HepG2, 390 nm light (250 ms pulses every 15 s)",5.2%
same,mean % subG1 phase,"[2]; 600 nM, HepG2, dark",3.1%
same,mean % subG1 phase,"[2]; 1 μM, HepG2, 390 nm light (250 ms pulses every 15 s)",4.6%
same,mean % subG1 phase,"[2]; 1 μM, HepG2, dark",2.3%
same,mean % subG1 phase,"[2]; 3 μM, HepG2, 390 nm light (250 ms pulses every 15 s)",6.5%
same,mean % subG1 phase,"[2]; 3 μM, HepG2, dark",1.9%
same,mean % subG1 phase,"[2]; 10 μM, HepG2, 390 nm light (250 ms pulses every 15 s)",14%
same,mean % subG1 phase,"[2]; 10 μM, HepG2, dark",2.8%
same,mean % subG1 phase,"[3]; 10 nM, 390 nm (350 ms every 5 min), 48 h",3.6%
same,mean % subG1 phase,"[3]; 10 nM, Dark, 48 h",6.7%
same,mean % subG1 phase,"[3]; 10 nM, MDA-MB-231, 390 nm only (150 ms pulse every 30 s), 48 h",0.3%
same,mean % subG1 phase,"[3]; 10 nM, MDA-MB-231, rescue protocol 390 nm + 515 nm (500 ms), 48 h",0.3%
same,mean % subG1 phase,"[3]; 100 nM, 390 nm (350 ms every 5 min), 48 h",3.9%
same,mean % subG1 phase,"[3]; 100 nM, MDA-MB-231, 390 nm only (150 ms pulse every 30 s), 48 h",0.3%
same,mean % subG1 phase,"[3]; 100 nM, MDA-MB-231, dark, 48 hours",2.1%
same,mean % subG1 phase,"[3]; 100 nM, MDA-MB-231, rescue protocol 390 nm + 515 nm (500 ms), 48 h",0.4%
same,mean % subG1 phase,"[3]; 100 nM, dark, 48 h",6.0%
same,mean % subG1 phase,"[3]; 400 nM, 390 nm (350 ms every 5 min), 48 h",4.2%
same,mean % subG1 phase,"[3]; 400 nM, MDA-MB-231, 390 nm only (150 ms pulse every 30 s), 48 h",14.0%
same,mean % subG1 phase,"[3]; 400 nM, MDA-MB-231, rescue protocol 390 nm + 515 nm (500 ms), 48 h",1.7%
same,mean % subG1 phase,"[3]; 400 nM, dark, 48 h",3.3%
same,mean % subG1 phase,"[3]; 600 nM, 390 nm (350 ms every 5 min), 48 h",16.8%
same,mean % subG1 phase,"[3]; 600 nM, MDA-MB-231, 390 nm only (150 ms pulse every 30 s), 48 h",22.9%
same,mean % subG1 phase,"[3]; 600 nM, MDA-MB-231, rescue protocol 390 nm + 515 nm (500 ms), 48 h",5.4%
same,mean % subG1 phase,"[3]; 600 nM, dark, 48 h",3.9%
same,mean % subG1 phase,"[3]; 800 nM, 390 nm (350 ms every 5 min), 48 h",32.1%
same,mean % subG1 phase,"[3]; 800 nM, Dark, 48 h",3.0%
same,mean % subG1 phase,"[3]; 800 nM, MDA-MB-231, 390 nm only (150 ms pulse every 30 s), 48 h",19.4%
same,mean % subG1 phase,"[3]; 800 nM, MDA-MB-231, rescue protocol 390 nm + 515 nm (500 ms), 48 h",11.7%
same,mean % subG1 phase,"[3]; 1 μM, 390 nm (350 ms every 5 min), 48 h",55.7%
same,mean % subG1 phase,"[3]; 1 μM, MDA-MB-231, 390 nm only (150 ms pulse every 30 s), 48 h",22.5%
same,mean % subG1 phase,"[3]; 1 μM, MDA-MB-231, dark, 48 hours",2.0%
same,mean % subG1 phase,"[3]; 1 μM, MDA-MB-231, rescue protocol 390 nm + 515 nm (500 ms), 48 h",15.3%
same,mean % subG1 phase,"[3]; 1 μM, dark, 48 h",3.1%
same,mean % subG1 phase,"[3]; 1.2 μM, 390 nm (350 ms every 5 min), 48 h",56.6%
same,mean % subG1 phase,"[3]; 1.2 μM, DARK, 48 h",3.6%
same,mean % subG1 phase,"[3]; 1.5 μM, 390 nm (350 ms every 5 min), 48 h",76.1%
same,mean % subG1 phase,"[3]; 1.5 μM, DARK, 48 h",3.3%
same,mean % subG1 phase,"[3]; 2 μM, MDA-MB-231, 390 nm only (150 ms pulse every 30 s), 48 h",35.4%
same,mean % subG1 phase,"[3]; 2 μM, MDA-MB-231, rescue protocol 390 nm + 515 nm (500 ms), 48 h",25.0%
same,mean % subG1 phase,"[3]; 3 μM, 390 nm (350 ms every 5 min), 48 h",79.0%
same,mean % subG1 phase,"[3]; 3 μM, dark, 48 h",6.0%
same,mean % subG1 phase,"[3]; 6 μM, 390 nm (350 ms every 5 min), 48 h",83.5%
same,mean % subG1 phase,"[3]; 6 μM, DARK, 48 h",3.9%
same,mean % subG1 phase,"[3]; 10 μM, MDA-MB-231, dark, 48 hours",2.0%
same,mean % subG1 phase,"[3]; 15 μM, 390 nm (350 ms every 5 min), 48 h",83.7%
same,mean % subG1 phase,"[3]; 15 μM, DARK, 48 h",5.4%
same,mean % subG1 phase,"[3]; 50 μM, MDA-MB-231, dark, 48 hours",4.5%
same,mean % subG1 phase,"[3]; 75 μM, MDA-MB-231, dark, 48 hours",7.9%
same,mean % subG1 phase,"[3]; 85 μM, MDA-MB-231, dark, 48 hours",12.7%
same,mean % subG1 phase,"[3]; 100 μM, MDA-MB-231, dark, 48 hours",26.8%
same,mean % subG1 phase,"[3]; 125 μM, MDA-MB-231, dark, 48 hours",51.1%
same,mean % subG1 phase,"[3]; 150 μM, MDA-MB-231, dark, 48 hours",92.2%
same,mean % subG1 phase,"[3]; 175 μM, MDA-MB-231, dark, 48 hours",95.7%
same,mean % subG1 phase,"[3]; 200 μM, MDA-MB-231, dark, 48 hours",95.5%
same,EC50,"[3]; 390 nm regimen, 48 h",~1 µM
same,EC50,"[3]; in the dark, 48 h",~120 µM
